In general, logP refers to a log measure of how a compound divides between an organic and an aqueous phase. A higher logP goes with higher lipophilicity.

On to `NCCCCCCCC(=O)O`, for which the logP was -2.55. The figure for `NC1(C(=O)O)CC1` is -2.78; for `NCCC(=O)O` it is -3.05. The figure for `CN(C)CC(=O)O` is -2.91; for `NCCCCCCC(=O)O` it is -3.03. Consider `O=C(O)C1CCNCC1`, for which the lipophilicity (logP) was -3.05. In the case of `NC1(C(=O)O)CCCCC1`, the logP is -1.87. The figure for `O=C(O)CCN1CCCCC1` is -2.45; for `NC1(C(=O)O)CCCC1` it is -2.28; for `O=C(O)C1CCCCN1` (stereo not drawn) it is -2.31. `O=C(O)C1CCN1` (stereo not drawn): the lipophilicity (logP) is -2.84.

On to `CCC(N)C(=O)O` (stereo not drawn), for which the logP was -2.54. `O=C(O)C1CCCNC1` (stereo not drawn): the log partition coefficient (logP) is -2.89.
